# From ChEMBL document CHEMBL5058564, “EUbOPEN Chemogenomics Library 2 (Incucyte)” (2022)
# Experiments:
# Assay type in all cases: toxicity, cell-based
# [1] = test system: HEK-293T; test: Incucyte cell viability with HEK293T; conditions: human, 10 µM, compound concentration 10 uM
# [2] = test system: Fibroblast; test: Incucyte cell viability with human fibroblast; conditions: 10 µM, compound concentration 10 uM
# [3] = test system: U2OS; test: Incucyte cell viability with U2OS; conditions: human, 10 µM, compound concentration 10 uM
# [4] = 6 h, replicate number 1, timepoint 6 hours
# [5] = 6 h, replicate number 2, timepoint 6 hours
# [6] = 12 h, replicate number 1, timepoint 12 hours
# [7] = 12 h, replicate number 2, timepoint 12 hours
# [8] = 18 h, replicate number 1, timepoint 18 hours
# [9] = 18 h, replicate number 2, timepoint 18 hours
# [10] = 24 h, replicate number 1, timepoint 24 hours
# [11] = 24 h, replicate number 2, timepoint 24 hours
# [12] = 0 h, replicate number 1, timepoint 0 hours
# [13] = 0 h, replicate number 2, timepoint 0 hours
# Also: unitless GR value; below 1 slowed growth and below 0 cell loss.
Compound,"Growth Rate [1, 6]","Growth Rate [1, 8]","Growth Rate [1, 10]","Growth Rate [1, 11]","Growth Rate [2, 4]","Growth Rate [2, 5]","Growth Rate [2, 6]","Growth Rate [2, 8]","Growth Rate [2, 9]","Growth Rate [2, 10]","Growth Rate [2, 11]","Growth Rate [3, 12]","Growth Rate [3, 5]","Growth Rate [3, 7]","Growth Rate [3, 9]","Growth Rate [3, 11]","Growth Rate [1, 12]","Growth Rate [1, 13]","Growth Rate [2, 12]","Growth Rate [2, 13]",other results
Cc1cc(Nc2ncc(Cl)c(Nc3ccccc3S(=O)(=O)C(C)C)n2)c(OC(C)C)cc1C1CCNCC1 [CERITINIB],-0.62,-0.45,-0.35,-0.38,-1,-0.97,-0.99,-0.95,-0.6,-0.88,-0.52,-0.86,-0.91,-0.74,-0.52,-0.42,,,,,"Growth Rate [1, 4]: -0.87; Growth Rate [1, 5]: -0.92; Growth Rate [1, 7]: -0.66; Growth Rate [1, 9]: -0.48; Growth Rate [2, 7]: -0.78; Growth Rate [3, 13]: -0.57; Growth Rate [3, 4]: -0.94; Growth Rate [3, 6]: -0.82; Growth Rate [3, 8]: -0.66; Growth Rate [3, 10]: -0.58"
CSCC[C@H](NC=O)C(=O)N[C@@H](CC(C)C)C(=O)N[C@@H](Cc1ccccc1)C(=O)O,1,0.78,0.82,,0.81,0.42,0.83,0.58,0.69,0.27,0.36,,0.44,0.83,0.92,0.97,0.95,0.68,0.43,0.65,"Growth Rate [1, 5]: 0.85; Growth Rate [1, 7]: 0.9; Growth Rate [2, 7]: 0.46"
Cc1ccc(CNc2ncnc3ccc(-c4ccc(CO)o4)cc23)o1,,,,,,,,,,,,-0.73,,,,,0.47,,-0.65,0.65,
CCCN1CCC[C@@H]2Cc3n[nH]cc3C[C@H]21.Cl [QUINPIROLE HYDROCHLORIDE],,,,,0.59,,0.29,0.54,,,,,0.9,0.66,0.96,0.96,,0.26,-0.18,0.29,"Growth Rate [1, 4]: 0.41; Growth Rate [3, 4]: -0.04; Growth Rate [3, 8]: 0.9; Growth Rate [3, 10]: 0.88"
O=C(O)c1cc2ccccc2c(Cc2c(O)c(C(=O)O)cc3ccccc23)c1O [PAMOIC ACID],,,,,,,0.52,0.93,,,,,0.75,,,,0.69,0.89,-0.13,0.41,
C[C@H]1CN(C[C@H](Cc2ccccc2)C(=O)NCC(=O)O)CC[C@@]1(C)c1cccc(O)c1 [ALVIMOPAN],0.9,1,0.93,0.85,,,,,,,,,,0.99,0.92,0.94,0.62,0.08,0.37,-0.31,"Growth Rate [1, 5]: 0.52; Growth Rate [1, 7]: 0.53; Growth Rate [1, 9]: 0.88; Growth Rate [3, 13]: 0.76; Growth Rate [3, 4]: 0.22; Growth Rate [3, 8]: 0.91"
Cc1c(C(=O)Nc2ccc(N3C[C@@H](C)O[C@@H](C)C3)nc2)cccc1-c1ccc(OC(F)(F)F)cc1 [SONIDEGIB],-0.06,0,0.05,-0.3,0.45,,0.42,0.13,,0.36,,-0.44,,,,0.97,,-0.95,0.97,0.63,"Growth Rate [1, 4]: 0.25; Growth Rate [1, 5]: -0.63; Growth Rate [1, 7]: -0.54; Growth Rate [1, 9]: -0.39; Growth Rate [3, 13]: -1"
Cl.O=C(O)c1cc(-c2ccc(C3CCNCC3)cc2)c2ccc(-c3ccc(C(F)(F)F)cc3)cc2c1,0.71,0.29,0.2,0.49,-0.7,0.67,-0.12,-0.01,0.43,0.06,0.23,,0.7,0.48,0.48,0.44,-0.99,-0.98,-0.16,-0.95,"Growth Rate [1, 9]: 0.68; Growth Rate [2, 7]: 0.42; Growth Rate [3, 4]: 0.77; Growth Rate [3, 6]: 0.79; Growth Rate [3, 8]: 0.6; Growth Rate [3, 10]: 0.6"
Cc1cc(OCCCS(C)(=O)=O)cc(C)c1-c1cccc(COc2ccc3c(c2)OC[C@H]3CC(=O)O)c1,,0.7,0.69,,-0.03,0.19,1,,0.31,0.78,0.67,0.26,0.73,0.89,0.9,,,,,0.69,"Growth Rate [2, 7]: 0.55"
CN1CCC(C(=O)c2cccc(NC(=O)c3c(F)cc(F)cc3F)n2)CC1,0.74,0.81,0.93,,,0.9,0.6,0.86,0.96,0.59,0.78,,,,,,,-1,,0.32,"Growth Rate [1, 4]: 0.24; Growth Rate [3, 13]: 0.68; Growth Rate [3, 4]: 0.94"
C[C@@H]1C[C@H]2[C@@H]3CCC4=CC(=O)C=C[C@]4(C)[C@@]3(F)[C@@H](O)C[C@]2(C)[C@@]1(O)C(=O)CO [DEXAMETHASONE],0.98,0.86,0.7,0.99,0.88,,,,,,,0.07,0.65,,0.95,,0.4,,0.73,,"Growth Rate [3, 13]: -1"
